Consider 1 compound from patent US10849864B2, “Combinations and methods for the treatment and/or prevention of fungal infections” (Novan, Inc., priority 2015, dated 2020).

Counter-ions that a name gives are not always drawn.

The test system of this test is Tricophyton rubrum (ATCC #28188). Briefly: MIC evaluation of individual test materials (Macrodilution Broth Method, Phase I). The test is classed as cell-based. As to conditions: Trichophyton rubrum, ATCC28188; test material alone; T. rubrum inoculum 1.775 × 10^3 CFU/mL per tube; read-out: Minimum Inhibitory Concentration (MIC) (as product concentration). The procedure:
The purpose of this study was to evaluate the synergistic in vitro interactions of one drug pair when challenged with Tricophyton rubrum (ATCC #28188).
A minimum inhibitory concentration (MIC) evaluation was performed for each test material versus T. rubrum using modifications of the Macrodilution Broth Method outlined in the CLSI (clinical laboratory standards institute) Document M07-A9: Methods for dilution antimicrobial susceptibility tests for bacteria that grow aerobically, 9th edition. The test materials were terbinafine hydrochloride and Nitricil™ NVN1, which is a NO-releasing diazeniumdiolate-functionalized co-condensed silica from Novan, Inc.
The challenge strain of T. rubrum was exposed to a series of doubling dilutions of each test material. […]
An initial population of T. rubrum was prepared containing approximately 10^3 CFU (colony forming units)/mL in appropriate fungal growth media (RPMI). This initial population density was precisely determined by preparing ten-fold dilutions and plating them on the appropriate solid fungal growth media for colony enumeration. […] Following incubation, the colonies were manually counted to determine the precise number of colonies present in the initial population. […]
The tubes were visually assessed on the basis of turbidity in order to determine fungal growth.

Regarding `CN(C/C=C/C#CC(C)(C)C)Cc1cccc2ccccc12` [Terbinafine hydrochloride, terbinafine hydrochloride], the MIC turned out to be 0.012 µg/mL.
